Consider 20 compounds from ChEMBL document CHEMBL4715689, “Novel PTP1B inhibitors identified by DNA display of fragment pairs” (Bioorg Med Chem Lett, 2016).

Experiment [1] concerns the target T1, Tyrosine-protein phosphatase non-receptor type 1 (Homo sapiens, UniProt P18031).
T1 sequence (P18031 whole entry): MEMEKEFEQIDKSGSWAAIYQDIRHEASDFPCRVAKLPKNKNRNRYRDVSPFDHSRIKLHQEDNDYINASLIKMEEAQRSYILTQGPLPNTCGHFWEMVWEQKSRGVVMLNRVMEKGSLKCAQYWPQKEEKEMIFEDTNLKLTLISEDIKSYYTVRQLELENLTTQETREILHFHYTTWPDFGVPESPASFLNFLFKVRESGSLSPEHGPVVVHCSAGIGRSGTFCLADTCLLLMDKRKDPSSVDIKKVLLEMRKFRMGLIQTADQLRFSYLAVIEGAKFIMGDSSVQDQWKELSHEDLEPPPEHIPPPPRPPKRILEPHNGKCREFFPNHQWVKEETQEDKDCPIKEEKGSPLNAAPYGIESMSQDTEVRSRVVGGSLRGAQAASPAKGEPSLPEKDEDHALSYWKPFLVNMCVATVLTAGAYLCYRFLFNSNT
Description: Inhibition of N-terminal GST-tagged recombinant human PTP1B (1 to 321 residues) expressed in Escherichia coli using DifMup as substrate preincubated for 30 mins followed by substrate addition and measured immediately

For experiment [2], the target named is T2, Tyrosine-protein phosphatase non-receptor type 2 (Homo sapiens, UniProt P17706).
T2 sequence (P17706 whole entry): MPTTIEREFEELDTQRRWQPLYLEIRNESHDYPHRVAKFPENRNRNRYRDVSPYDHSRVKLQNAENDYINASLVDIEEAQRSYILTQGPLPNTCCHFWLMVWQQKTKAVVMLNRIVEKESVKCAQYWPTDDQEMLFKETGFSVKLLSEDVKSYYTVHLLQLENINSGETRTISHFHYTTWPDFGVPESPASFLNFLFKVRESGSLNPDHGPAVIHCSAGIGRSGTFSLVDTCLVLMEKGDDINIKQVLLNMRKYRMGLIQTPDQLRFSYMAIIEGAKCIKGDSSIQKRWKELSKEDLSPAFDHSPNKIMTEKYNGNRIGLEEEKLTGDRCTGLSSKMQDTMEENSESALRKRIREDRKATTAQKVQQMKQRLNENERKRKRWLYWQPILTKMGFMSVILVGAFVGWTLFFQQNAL
In words: Inhibition of recombinant human TCPTP (1 to 317 residues) expressed in Escherichia coli using DifMup as substrate preincubated for 30 mins followed by substrate addition and measured immediately.

Experiment [3] concerns the target T1, Tyrosine-protein phosphatase non-receptor type 1. This is another data set of the same source.
Description: Binding affinity to N-terminal GST-tagged recombinant human PTP1B (1 to 321 residues) expressed in Escherichia coli assessed as dissociation constant and measured for 120 sec by biolayer interferometry
Another experiment concerns BT-474. In words: Growth inhibition of human BT474 cells assessed as reduction in cell viability after 48 hrs by MTT assay. Type of experiment: functional.

Each structure is given as a SMILES string. Activity calls are given as the source filed them. No cut-off for these calls is given here.

Take `CCCCC(NC1=NS(=O)(=O)c2ccccc21)C(=O)NC[C@@H](NC(=O)C1CCCC(NC(=O)[C@H](CC(C)(C)C)n2cc(CC3CCCCC3)nn2)C1)C(N)=O` (some centres undefined): the inhibition constant Ki in experiment [1] was determined as 3.1 µM; in experiment [2], 12.2 µM. The compound further displayed a Kd in experiment [3] of 0.09 µM.
The like results for `CCCCC(NC1=NS(=O)(=O)c2ccccc21)C(=O)NC[C@@H](NC(=O)C1(NC(=O)[C@H](CC(C)(C)C)n2cc(CC3CCCCC3)nn2)CC1)C(N)=O` (some centres undefined) were, in that order, 2.2 µM, 7.6 µM and 0.21 µM.
In the case of `CCC(C)C(NC1=NS(=O)(=O)c2ccccc21)C(=O)NC[C@@H](NC(=O)CC1(NC(=O)[C@H](CC(C)(C)C)n2cc(CC3CCCCC3)nn2)CCCCC1)C(=O)NC(CCCCNC(=O)CCCC[C@@H]1SCC2NC(=O)NC21)C(N)=O` (some centres undefined), the values for the Ki in experiment [1] and in experiment [2] were 1.7 µM and above 100 µM, respectively. Besides, in experiment [3], binding was put at a Kd of 0.29 µM. Moreover, the GI50 with BT-474 was found to be 0.9 µM.
Consider `NC(=O)C(CNC(=O)CCCCCNC1=NS(=O)(=O)c2ccccc21)NC(=O)Cc1ccc(CNC(=O)[C@H](C2CC2)n2cc(CC3CCCCC3)nn2)cc1` (some centres undefined), for which the Ki is 6.8 µM in experiment [1] and 3.01 µM in experiment [2]. Besides, the affinity in experiment [3], expressed as Kd, was 0.11 µM.
Turning to `CCCCC(NC1=NS(=O)(=O)c2ccccc21)C(=O)NCC(NC(=O)CC1(NC(=O)C(C2CC2)n2cc(CC3CCCCC3)nn2)CCCCC1)C(=O)NC(CCCCNC(=O)CCCC[C@@H]1SCC2NC(=O)NC21)C(N)=O` (some centres undefined), the figures for the inhibition constant Ki in experiment [1] and in experiment [2] were 16.8 µM and 2.7 µM, respectively. This compound also showed a Kd in experiment [3] of 0.12 µM.
The like results for `CCC(C)C(NC1=NS(=O)(=O)c2ccccc21)C(=O)NC[C@@H](NC(=O)C1CCCC(NC(=O)C(C2CC2)n2cc(CC3CCCCC3)nn2)C1)C(=O)NC(CCCCNC(=O)CCCC[C@@H]1SCC2NC(=O)NC21)C(N)=O` (some centres undefined) were, in that order, 3.4 µM, 0.8 µM and 0.24 µM.
Regarding `CC(C)C(NC1=NS(=O)(=O)c2ccccc21)C(=O)NC[C@@H](NC(=O)CC1(NC(=O)[C@H](CC(C)(C)C)n2cc(CC3CCCCC3)nn2)CCCCC1)C(N)=O` (some centres undefined), the Ki in experiment [1] was 3.5 µM; in experiment [2] it was 6.2 µM. The Kd in experiment [3] was found to be 0.1 µM.
For `CC(C)C(NC1=NS(=O)(=O)c2ccccc21)C(=O)NCC(NC(=O)c1n[nH]c2ccc([N+](=O)[O-])cc12)C(=O)NC(CCCCNC(=O)CCCC[C@@H]1SCC2NC(=O)NC21)C(N)=O` (some centres undefined), the figures for the Ki in experiment [1] and in experiment [2] were 0.25 µM and above 20 µM, respectively. This compound also had a Kd in experiment [3] of 0.05 µM. Besides, the result in the experiment with BT-474 was inactive.
Take `CC(C)C(NC1=NS(=O)(=O)c2ccccc21)C(=O)NC[C@@H](NC(=O)CC1(NC(=O)[C@H](CC(C)(C)C)n2cc(CC3CCCCC3)nn2)CCCCC1)C(=O)NC(CCCCNC(=O)CCCC[C@@H]1SCC2NC(=O)NC21)C(N)=O` (some centres undefined): the Ki in experiment [1] amounted to 3.5 µM; in experiment [2], 6.2 µM. In addition, in experiment [3], the Kd turned out to be 0.1 µM.
The like results for `CCCCC(NC1=NS(=O)(=O)c2ccccc21)C(=O)NCC(NC(=O)CC1(NC(=O)C(C2CC2)n2cc(CC3CCCCC3)nn2)CCCCC1)C(N)=O` (centres undefined) were, in that order, 16.8 µM, 2.7 µM and 0.12 µM.
Turning to `CCCCC(NC1=NS(=O)(=O)c2ccccc21)C(=O)NCC(NC(=O)COCCOCCNC(=O)C(C1CC1)n1cc(-c2cccc(OC)c2)nn1)C(N)=O` (centres undefined), the Ki in experiment [1] worked out at 2.9 µM; in experiment [2], 7.01 µM. In experiment [3], this compound showed a Kd of 0.22 µM.
For the compound `CCCCC(NC1=NS(=O)(=O)c2ccccc21)C(=O)NCC(NC(=O)c1ccccc1NC(=O)c1n[nH]c2ccc([N+](=O)[O-])cc12)C(N)=O` (centres undefined), the Ki was 1.2 µM in experiment [1] and above 100 µM in experiment [2]. The compound also showed a Kd in experiment [3] of 0.27 µM. Besides, the result in the experiment with BT-474 was inactive.
In the case of `CCC(C)C(NC1=NS(=O)(=O)c2ccccc21)C(=O)NC[C@@H](NC(=O)CC1(NC(=O)[C@H](CC(C)(C)C)n2cc(CC3CCCCC3)nn2)CCCCC1)C(N)=O` (some centres undefined), the Ki was 1.7 µM in experiment [1] and above 100 µM in experiment [2]. Also, in experiment [3], the Kd turned out to be 0.29 µM. Also, in the experiment on BT-474, the GI50 was determined as 0.9 µM.
For the compound `NC(=O)C(CCCCNC(=O)CCCC[C@@H]1SCC2NC(=O)NC21)NC(=O)C(CNC(=O)CCCCCNC1=NS(=O)(=O)c2ccccc21)NC(=O)Cc1ccc(CNC(=O)[C@H](C2CC2)n2cc(CC3CCCCC3)nn2)cc1` (some centres undefined), the Ki came out at 6.8 µM in experiment [1] and 3.01 µM in experiment [2]. The compound further registered a Kd in experiment [3] of 0.11 µM.
As for `CCC(C)C(NC1=NS(=O)(=O)c2ccccc21)C(=O)NC[C@@H](NC(=O)C1CCCC(NC(=O)C(C2CC2)n2cc(CC3CCCCC3)nn2)C1)C(N)=O` (some centres undefined), the Ki in experiment [1] is 3.4 µM; in experiment [2], 0.8 µM. The same compound gave a dissociation constant Kd in experiment [3] of 0.24 µM.
As for `CCCCC(NC1=NS(=O)(=O)c2ccccc21)C(=O)NCC(NC(=O)c1ccccc1NC(=O)c1n[nH]c2ccc([N+](=O)[O-])cc12)C(=O)NC(CCCCNC(=O)CCCC[C@@H]1SCC2NC(=O)NC21)C(N)=O` (some centres undefined), the Ki in experiment [1] is 1.2 µM; in experiment [2] it was above 100 µM. In experiment [3], this compound displayed a Kd of 0.27 µM. For the same compound, in the experiment on BT-474, the outcome was inactive.
In the case of `CCCCC(NC1=NS(=O)(=O)c2ccccc21)C(=O)NC[C@@H](NC(=O)C1(NC(=O)[C@H](CC(C)(C)C)n2cc(CC3CCCCC3)nn2)CC1)C(=O)NC(CCCCNC(=O)CCCC[C@@H]1SCC2NC(=O)NC21)C(N)=O` (some centres undefined), the Ki in experiment [1] came out at 2.2 µM; in experiment [2], 7.6 µM. The same compound displayed a Kd in experiment [3] of 0.21 µM.
On to `CCCCC(NC1=NS(=O)(=O)c2ccccc21)C(=O)NCC(NC(=O)COCCOCCNC(=O)C(C1CC1)n1cc(-c2cccc(OC)c2)nn1)C(=O)NC(CCCCNC(=O)CCCC[C@@H]1SCC2NC(=O)NC21)C(N)=O` (some centres undefined), for which the inhibitory constant (Ki) turned out to be 2.9 µM in experiment [1] and 7.01 µM in experiment [2]. In addition, the Kd in experiment [3] stood at 0.22 µM.
For the compound `CC(C)C(NC1=NS(=O)(=O)c2ccccc21)C(=O)NCC(NC(=O)c1n[nH]c2ccc([N+](=O)[O-])cc12)C(N)=O` (centres undefined), the Ki in experiment [2] was above 20 µM. The result in the experiment with BT-474 was inactive.
In the case of `CCCCC(NC1=NS(=O)(=O)c2ccccc21)C(=O)NC[C@@H](NC(=O)C1CCCC(NC(=O)[C@H](CC(C)(C)C)n2cc(CC3CCCCC3)nn2)C1)C(=O)NC(CCCCNC(=O)CCCC[C@@H]1SCC2NC(=O)NC21)C(N)=O` (some centres undefined), the figures for the Ki in experiment [1] and in experiment [2] were 3.1 µM and 12.2 µM, respectively. In experiment [3], binding was characterised by a dissociation constant (Kd) of 0.09 µM.
